Results reported in ChEMBL document CHEMBL1142805, “Study on supramolecular complexing ability vis-à-vis estimation of pKa of substituted sulfonamides: dominating role of Balaban index (J)” (Bioorg Med Chem Lett, 2005).

Assay: Protonation constant (Proton-ligand formation constant) was determined
Assay type: ADME

## O=[N+]([O-])c1ccc(S(=O)(=O)Nc2ccccc2)cc1
  pKa: 6.66
